# Measured values published in article PMC9225712, “Rational design of biodegradable sulphonamide candidates treating septicaemia by synergistic dual inhibition of COX-2/PGE2 axis and DHPS enzyme” (Journal of Enzyme Inhibition and Medicinal Chemistry, 2022).
# Marks after values point to notes of the source that are not given here.
# Tests used:
# [1] = system: Proteus vulgaris (RCMB 010085); experiment: Inhibition zone, agar cup diffusion; settings: RCMB010085, 24 h, read-out: inhibition zones (IZ) P. vulgaris
# [2] = system: Staphylococcus aureus (RCMB 0100183); experiment: Inhibition zone, agar cup diffusion; settings: RCMB0100183, 24 h, read-out: inhibition zones (IZ) S. aureus
# [3] = system: Bacillus subtilis (RCMB 0100162); experiment: Inhibition zone, agar cup diffusion; settings: RCMB0100162, 24 h, read-out: inhibition zones (IZ) B. subtillis
# gastric layers = experiment: Gastric ulcerogenic activity; settings: fasted male Wistar rats, oral 30 µmol/kg twice at 4 h interval
# [4] = system: Salmonella typhi (RCMB 0100104); experiment: Inhibition zone, agar cup diffusion; format: cell-based; settings: Salmonella enterica, 24 h, read-out: inhibition zones (IZ) S. typhi
# human recombinant COX-2 = molecular target: T1, human recombinant COX-2 (Homo sapiens, UniProt P35354); experiment: In vitro COX-2 enzymatic assay (Cayman kit 560131); settings: for SI COX-1/COX-2: COX-2 selectivity index: COX-1 IC50/COX-2 IC50
# T1 sequence (P35354 18-604): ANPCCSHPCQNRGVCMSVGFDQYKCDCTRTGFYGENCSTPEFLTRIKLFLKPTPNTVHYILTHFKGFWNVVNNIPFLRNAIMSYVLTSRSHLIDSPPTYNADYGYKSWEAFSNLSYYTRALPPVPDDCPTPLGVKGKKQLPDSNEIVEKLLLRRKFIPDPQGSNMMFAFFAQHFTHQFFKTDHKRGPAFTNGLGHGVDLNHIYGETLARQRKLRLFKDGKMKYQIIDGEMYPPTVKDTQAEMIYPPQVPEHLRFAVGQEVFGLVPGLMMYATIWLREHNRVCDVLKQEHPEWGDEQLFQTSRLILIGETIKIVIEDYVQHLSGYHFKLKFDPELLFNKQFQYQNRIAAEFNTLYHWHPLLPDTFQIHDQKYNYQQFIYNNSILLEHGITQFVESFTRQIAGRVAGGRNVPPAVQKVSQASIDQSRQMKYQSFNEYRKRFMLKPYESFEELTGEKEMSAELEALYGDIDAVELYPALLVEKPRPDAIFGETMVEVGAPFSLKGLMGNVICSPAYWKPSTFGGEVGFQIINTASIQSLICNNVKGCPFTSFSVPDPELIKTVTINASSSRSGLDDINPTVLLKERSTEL
# [5] = system: carrageenan-induced paw edoema; experiment: Carrageenan-induced paw edoema in mice; settings: for ED50: Mus musculus, read-out: ED50 (95% confidence level); for ED50 / percentage anti-inflammatory activity (AI%) 8h: 8 h; for Thickness of edoema 0h / percentage anti-inflammatory activity (AI%) 2h / Thickness of edoema 2h / percentage anti-inflammatory activity (AI%) 4h / Thickness of edoema 4h / percentage anti-inflammatory activity (AI%) 6h / Thickness of edoema 6h / Thickness of edoema 8h / percentage anti-inflammatory activity (AI%) 8h: mice, po 10 µmol/kg b.wt.; for Thickness of edoema 0h: 0 h (before carrageenan); for Thickness of edoema 0h / Thickness of edoema 2h / Thickness of edoema 4h / Thickness of edoema 6h / Thickness of edoema 8h: Mean ± SEM, n = 5; for Thickness of edoema 2h: 2 h after carrageenan; for Thickness of edoema 4h: 4 h after carrageenan; for Thickness of edoema 6h: 6 h after carrageenan; for Thickness of edoema 8h: 8 h after carrageenan
# [6] = system: Shigella dysenteriae (RCMB 0100542); experiment: Inhibition zone, agar cup diffusion; format: cell-based; settings: RCMB0100542, 24 h, read-out: inhibition zones (IZ) S. dysenteriae
# [7] = system: Streptococcus mutans (RCMB 0100172); experiment: Inhibition zone, agar cup diffusion; settings: RCMB0100172, 24 h, read-out: inhibition zones (IZ) S. mutans
# S. aureus Smith = settings: for ED50: Staphylococcus aureus, in Mus musculus, read-out: ED50 against S. aureus infection; for ED50, protective effect against bacteremic infection, Staphylococcus aureus: mice, challenge dose 9.5x10^6 CFU/mouse ip, intragastric once a day for 7 days, survival
# PGE2 = experiment: Estimation of rat plasma PGE2; settings: po 10 µmol/kg b.wt., 8 h after carrageenan; for % inhibition of PGE2-production: rat serum; for PGE2 serum conc.: rat, Mean ± SEM, n = 5
# [8] = system: Staphylococcus epidermidis (RCMB 0100183); experiment: Inhibition zone, agar cup diffusion; settings: RCMB0100183, 24 h, read-out: inhibition zones (IZ) S. epidermidis
# E. coli C11 = settings: for ED50: Escherichia coli, C11, in Mus musculus, read-out: ED50 against E.coli infection; for ED50, protective effect against bacteremic infection, Escherichia coli: mice, challenge dose 7.1x10^3 CFU/mouse ip, intragastric once a day for 7 days, survival
# [9] = system: Escherichia coli (RCMB 010052); experiment: Inhibition zone, agar cup diffusion; settings: RCMB010052, 24 h, read-out: inhibition zones (IZ) E.coli
# [10] = system: Pseudomonas aeruginosa (RCMB 0100243); experiment: Inhibition zone, agar cup diffusion; settings: RCMB0100243, 24 h, read-out: inhibition zones (IZ) P.aeruginosa
# [11] = system: Gram-positive and Gram-negative bacteria; experiment: In vitro antibacterial screening, whole panel; format: cell-based; settings: whole bacterial panel, result in words
# ovine COX-1 = molecular target: T2, ovine COX-1 (Ovis aries, UniProt P05979); experiment: In vitro COX-1 enzymatic assay (Cayman kit 560131); format: biochemical; settings: Mean ± SEM of triplicate determinations
# T2 construct: purchased Cayman Chemicals Inc. 560131
# T2 sequence (P05979 25-600): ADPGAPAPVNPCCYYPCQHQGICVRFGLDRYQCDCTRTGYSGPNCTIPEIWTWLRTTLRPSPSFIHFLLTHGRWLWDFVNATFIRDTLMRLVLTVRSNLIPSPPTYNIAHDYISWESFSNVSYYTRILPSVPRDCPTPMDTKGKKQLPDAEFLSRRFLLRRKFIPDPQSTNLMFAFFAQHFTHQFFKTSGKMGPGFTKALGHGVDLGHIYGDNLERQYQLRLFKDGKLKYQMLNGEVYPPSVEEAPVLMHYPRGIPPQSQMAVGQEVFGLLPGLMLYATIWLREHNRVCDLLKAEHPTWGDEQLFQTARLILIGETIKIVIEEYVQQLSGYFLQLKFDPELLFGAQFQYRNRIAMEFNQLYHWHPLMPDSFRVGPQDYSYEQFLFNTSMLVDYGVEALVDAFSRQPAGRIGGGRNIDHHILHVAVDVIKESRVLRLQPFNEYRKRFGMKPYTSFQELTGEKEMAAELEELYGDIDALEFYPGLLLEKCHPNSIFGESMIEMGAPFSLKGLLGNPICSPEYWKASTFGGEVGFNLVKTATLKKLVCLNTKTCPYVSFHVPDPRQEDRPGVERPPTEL
SMILES,zone of inhibition at 1000 µg/mL [1],zone of inhibition at 1000 µg/mL [2],zone of inhibition at 1000 µg/mL [3],zone of inhibition at 1000 µg/mL [4],IC50 (human recombinant COX-2),SI COX-1/COX-2 (human recombinant COX-2),ED50 [5],Thickness of edoema 0h [5],percentage anti-inflammatory activity (AI%) 2h [5],Thickness of edoema 2h [5],percentage anti-inflammatory activity (AI%) 4h [5],Thickness of edoema 4h [5],percentage anti-inflammatory activity (AI%) 6h [5],zone of inhibition at 1000 µg/mL [6],zone of inhibition at 1000 µg/mL [7],zone of inhibition at 1000 µg/mL [8],zone of inhibition at 1000 µg/mL [9],zone of inhibition at 1000 µg/mL [10],in vitro antibacterial activity [11],IC50 (ovine COX-1),also measured
"O=C(c1cc(/N=N/c2ccc(S(=O)(=O)Nc3ncccn3)cc2)ccc1O)N1CCCCC1 [Compound 5j, 4-((4-Hydroxy-3-(piperidine-1-carbonyl)phenyl)diazenyl)-N-(pyrimidin-2-yl) benzenesulfonamide]",17 mm,28 mm,19 mm,15 mm,0.05 ± 0.0005 µM,239.2,10.9 µmol/kg,0.67 ± 0.02 mm,(15.79%),0.80 ± 0.01^c mm,(51.39%),0.70 ± 0.01^c mm,(70.73%),25 mm,27 mm,30 mm,14 mm,16 mm,weak in vitro antibacterial activity,12.2 ± 0.06 µM,"Gastric ulcerogenic effect, histopathological examination of gastric layers (gastric layers): gastrointestinal safety profile; Thickness of edoema 6h [5]: 0.60 ± 0.01^c mm; Thickness of edoema 8h [5]: 0.53 ± 0.01^c mm; ED50 (S. aureus Smith): 302 µmol/kg; ED50, protective effect against bacteremic infection, Staphylococcus aureus (S. aureus Smith): 302.1 µmol/kg/day; % inhibition of PGE2-production (PGE2): 83.25%; PGE2 serum conc. (PGE2): 221.236 ± 4.62 pg/mL; ED50 (E. coli C11): 273 µmol/kg; ED50, protective effect against bacteremic infection, Escherichia coli (E. coli C11): 272.7 µmol/kg/day"
"O=C(O)c1cc(/N=N/c2ccc(S(=O)(=O)Nc3ccccn3)cc2)ccc1O [Sulfasalazine, reference compound]",–,–,–,–,–,–,–,–,–,–,–,–,–,–,–,–,–,–,–,–,"ED50 (S. aureus Smith): 314 µmol/kg; ED50, protective effect against bacteremic infection, Staphylococcus aureus (S. aureus Smith): 313.7 µmol/kg/day; ED50 (E. coli C11): 419 µmol/kg; ED50, protective effect against bacteremic infection, Escherichia coli (E. coli C11): 419.2 µmol/kg/day"
"O=C(O)Cc1ccccc1Nc1c(Cl)cccc1Cl [Diclofenac sodium, reference compound]",–,–,–,–,–,–,11.5 µmol/kg,0.69 ± 0.004 mm,(-11.58%),1.06 ± 0.03^c mm,(38.19%),0.89 ± 0.01^c mm,(60.98%),–,–,–,–,–,–,–,"Gastric ulcerogenic effect, histopathological examination of gastric layers (gastric layers): erosion in the gastric layers; Gastric ulcerogenic effect, monitoring of isolated stomachs (gastric layers): signs of gastric ulcers and hyperaemia; Thickness of edoema 6h [5]: 0.80 ± 0.01^c mm; Thickness of edoema 8h [5]: 0.71 ± 0.01^c mm; % inhibition of PGE2-production (PGE2): 79.10%; PGE2 serum conc. (PGE2): 276.052 ± 5.60 pg/mL"
"Cc1ccnc(NS(=O)(=O)c2ccc(/N=N/c3ccc(O)c(C(=O)N4CCCCC4)c3)cc2)n1 [Compound 5k, 4-((4-Hydroxy-3-(piperidine-1-carbonyl)phenyl)diazenyl)-N-(4-methylpyrimidin-2-yl) benzenesulfonamide]",19 mm,19 mm,18 mm,14 mm,0.09 ± 0.0003 µM,111.9,–,–,–,–,–,–,–,25 mm,28 mm,32 mm,16 mm,14 mm,weak in vitro antibacterial activity,10.3 ± 0.08 µM,–
"Cc1ccc(-c2cc(C(F)(F)F)nn2-c2ccc(S(N)(=O)=O)cc2)cc1 [Celecoxib, reference compound]",–,–,–,–,–,–,13.1 µmol/kg,0.62 ± 0.01 mm,(6.32%)^d,0.89 ± 0.01^c mm,(45.14%),0.79 ± 0.01^c mm,(64.39%),–,–,–,–,–,–,–,Thickness of edoema 6h [5]: 0.73 ± 0.03^c mm; percentage anti-inflammatory activity (AI%) 8h [5]: (70.87%); percentage anti-inflammatory activity (AI%) 8h ([5]; listed as celecoxib): 70.87%; Thickness of edoema 8h [5]: 0.67 ± 0.02^c mm; % inhibition of PGE2-production (PGE2): 71.18%; PGE2 serum conc. (PGE2): 380.636 ± 5.53 pg/mL
"O=C(c1cc(/N=N/c2ccc(S(=O)(=O)Nc3nccs3)cc2)ccc1O)N1CCCCC1 [Compound 5i, 4-((4-Hydroxy-3-(piperidine-1-carbonyl)phenyl)diazenyl)-N-(thiazol-2-yl) benzenesulfonamide]",18 mm,25 mm,19 mm,15 mm,0.08 ± 0.0008 µM,136.6,–,–,–,–,–,–,–,22 mm,31 mm,30 mm,16 mm,18 mm,weak in vitro antibacterial activity,11.2 ± 0.11 µM,–
"O=C(c1cc(N=Nc2ccc(S(=O)(=O)Nc3nccs3)cc2)ccc1O)N1CCOCC1 [Compound 5m, 4-((4-Hydroxy-3-(morpholine-4-carbonyl)phenyl)diazenyl)-N-(thiazol-2-yl)benzenesulfonamide]",16 mm,25 mm,20 mm,16 mm,0.1 ± 0.0008 µM,102.1,–,–,–,–,–,–,–,24 mm,29 mm,33 mm,18 mm,18 mm,weak in vitro antibacterial activity,9.9 µM,–
